The source of these data is US20250368633A1, “AZEPINE FUSED RING COMPOUND AS RIPK1 INHIBITOR AND USE THEREOF” (ARTIVILA BIOPHARMA, priority 2022, published 2025).

The target in experiment [1] is T1, RIPK1 kinase (Homo sapiens, UniProt Q13546).
T1 construct: purchased Promega VA7593
T1 sequence (Q13546 1-671): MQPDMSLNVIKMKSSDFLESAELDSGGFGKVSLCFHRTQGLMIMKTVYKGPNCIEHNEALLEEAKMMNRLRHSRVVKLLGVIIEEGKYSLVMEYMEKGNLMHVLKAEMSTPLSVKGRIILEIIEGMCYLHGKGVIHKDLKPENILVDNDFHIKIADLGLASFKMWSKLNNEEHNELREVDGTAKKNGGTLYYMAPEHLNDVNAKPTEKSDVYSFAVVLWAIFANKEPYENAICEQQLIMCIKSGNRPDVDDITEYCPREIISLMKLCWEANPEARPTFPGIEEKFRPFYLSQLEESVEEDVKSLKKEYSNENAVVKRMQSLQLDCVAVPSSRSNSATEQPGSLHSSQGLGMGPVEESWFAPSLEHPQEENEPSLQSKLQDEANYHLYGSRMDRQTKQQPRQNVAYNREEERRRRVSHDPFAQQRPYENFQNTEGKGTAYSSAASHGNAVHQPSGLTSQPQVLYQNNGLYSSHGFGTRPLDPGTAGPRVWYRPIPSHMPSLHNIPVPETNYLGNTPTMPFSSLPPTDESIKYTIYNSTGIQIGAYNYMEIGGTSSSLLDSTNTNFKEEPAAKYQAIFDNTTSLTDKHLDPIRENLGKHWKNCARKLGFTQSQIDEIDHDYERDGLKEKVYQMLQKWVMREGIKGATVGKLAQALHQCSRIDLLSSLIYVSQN
In words: In vitro RIPK1 kinase activity IC50 assay (ADP-Glo). It is filed as biochemical. As to conditions: ATP 10 μM; MBP substrate 100 μg/mL; 8 concentration points; read-out: IC50 range of compounds for RIPK1 kinase activity. The method in brief:
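Human RIPK1 preincubated 15 min at room temperature with compound (8-point 1:5 dilution series, 1% DMSO in kinase buffer D). Reaction then ran 1 h with 10 μM ATP and 100 μg/mL MBP substrate; ADP measured by ADP-Glo luminescence, IC50 from four-parameter nonlinear fit.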

Experiment [2] addresses T1, RIPK1 kinase. In words: In vitro RIPK1 kinase activity assay (ADP-Glo), inhibition by compounds at 1 μM. The note with it: compound 1 μM; ATP 10 μM; MBP substrate 100 μg/mL; read-out: RIPK1 kinase activity inhibition rate range. The class given is biochemical. The method in brief:
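Compound and RIPK1 were preincubated 15 min at room temperature, then reacted 1 h with 10 μM ATP and 100 μg/mL MBP substrate in kinase buffer D. ADP formed was measured by ADP-Glo luminescence and converted to percent inhibition of kinase activity.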

Regarding `CN1C(=O)[C@H](NC(=O)C(=O)NCCc2ccccc2)COc2ccc(C#CC3(O)COC3)cc21` [Example 77, (R)—N^1-(7-((3-hydroxyoxetan-3-yl)ethynyl)-5-methyl-4-oxo-2,3,4,5-tetrahydrobenzo[b][1,4]oxazepin-3-yl)-N^2-phenethyloxalamide], the half-inhibitory concentration (IC50) in experiment [1] is < 100 nM. In addition, the inhibition at 1 µM in experiment [2] lay in the range of 50 to 74%.

Turning to `COC1(C#Cc2ccc3c(c2)N(C)C(=O)[C@@H](NC(=O)C(=O)NCCc2ccccc2)CO3)COC1` [Example 78, (S)—N^1-(7-((3-methoxyoxetan-3-yl)ethynyl)-5-methyl-4-oxo-2,3,4,5-tetrahydrobenzo[b][1,4]oxazepin-3-yl)-N^2-phenethyloxalamide], the IC50 in experiment [1] was < 100 nM. Moreover, the inhibition at 1 µM in experiment [2] was in the range of 50 to 74%.

For `CN1C(=O)[C@@H](NC(=O)C(=O)NCCc2ccccc2)COc2ccc(C#CCC3(O)COC3)cc21` [Example 79, (S)—N^1-(7-(3-(3-hydroxyoxetan-3-yl)prop-1-yn-1-yl)-5-methyl-4-oxo-2,3,4,5-tetrahydrobenzo[b][1,4]oxazepin-3-yl)-N^2-phenethyloxalamide], the IC50 in experiment [1] was < 100 nM. Moreover, the inhibition at 1 µM in experiment [2] fell in the range of 50 to 74%.

In the case of `CN1C(=O)[C@@H](NC(=O)C(=O)NCCc2ccccc2)COc2ccc(C#CC3(O)CCOC3)cc21` (stereo partly drawn) [Example 80, N^1-((3S)-7-((3-hydroxytetrahydrofuran-3-yl)ethynyl)-5-methyl-4-oxo-2,3,4,5-tetrahydrobenzo[b][1,4]oxazepin-3-yl)-N^2-phenethyloxalamide], the IC50 in experiment [1] was < 100 nM. The inhibition at 1 µM in experiment [2] was ≥ 75%.

With `CN1C(=O)[C@@H](NC(=O)C(=O)NCCc2ccccc2)COc2ccc(C#CCN3CCC(O)CC3)cc21` [Example 81, (S)—N^1-(7-(3-(4-hydroxypiperidin-1-yl)prop-1-yn-1-yl)-5-methyl-4-oxo-2,3,4,5-tetrahydrobenzo[b][1,4]oxazepin-3-yl)-N^2-phenethyloxalamide], the IC50 in experiment [1] was < 100 nM. The inhibition at 1 µM in experiment [2] was ≥ 75%.

For the compound `CN1C(=O)[C@@H](NC(=O)C(=O)NCCc2ccccc2)COc2ccc(C#CCN3C(=O)CCC3=O)cc21` [Example 84, (S)—N^1-(7-(3-(2,5-dioxopyrrolidin-1-yl)prop-1-yn-1-yl)-5-methyl-4-oxo-2,3,4,5-tetrahydrobenzo[b][1,4]oxazepin-3-yl)-N^2-phenethyloxalamide], the IC50 in experiment [1] is < 100 nM. Moreover, the inhibition at 1 µM in experiment [2] is ≥ 75%.

Take `CN1C(=O)[C@@H](NC(=O)C(=O)NCCc2ccccc2)COc2ccc(C#CCN3CCNC(=O)C3)cc21` [Example 85, (S)—N^1-(5-methyl-4-oxo-7-(3-(3-oxopiperazin-1-yl)prop-1-yn-1-yl)-2,3,4,5-tetrahydrobenzo[b][1, 4]oxazepin-3-yl)-N^2-phenethyloxalamide]: the IC50 in experiment [1] is < 100 nM. In experiment [2], the inhibition at 1 µM is ≥ 75%.

With `CN1C(=O)[C@@H](NC(=O)C(=O)NCCc2ccccc2)COc2ccc(C#CCNC(=O)OC(C)(C)C)cc21` [Example 86, tert-butyl (S)-(3-(5-methyl-4-oxo-3-(2-oxo-2-(phenethylamino)acetamido)-2,3,4,5-tetrahydrobenzo[b][1,4]oxazepin-7-yl)prop-2-yn-1-yl)carbamate], in experiment [1], the IC50 was < 100 nM. Further, in experiment [2], the inhibition at 1 µM was in the range of 50 to 74%.

For `CN1C(=O)[C@@H](NC(=O)C(=O)NCCc2ccccc2)COc2ccc(C#CCNC(=O)CO)cc21` [Example 88, (S)—N^1-(7-(3-(2-hydroxyacetamido)prop-1-yn-1-yl)-5-methyl-4-oxo-2,3,4,5-tetrahydrobenzo[b][1, 4]oxazepin-3-yl)-N^2-phenethyloxalamide], the IC50 in experiment [1] was < 100 nM. Also, in experiment [2], the inhibition at 1 µM was ≥ 75%.

For `C=CC(=O)NCC#Cc1ccc2c(c1)N(C)C(=O)[C@@H](NC(=O)C(=O)NCCc1ccccc1)CO2` [Example 89, (S)—N^1-(7-(3-acrylamidoprop-1-yn-1-yl)-5-methyl-4-oxo-2,3,4,5-tetrahydrobenzo[b][1,4]oxazepin-3-yl)-N^2-phenethyloxalamide], the IC50 in experiment [1] was < 100 nM. The inhibition at 1 µM in experiment [2] fell in the range of 50 to 74%.

Turning to `CN1C(=O)[C@@H](NC(=O)C(=O)NCCc2ccccc2)COc2ccc(C#CC3CN(C=O)C3)cc21` [Example 91, (S)—N^1-(7-((1-formylazetidin-3-yl)ethynyl)-5-methyl-4-oxo-2,3,4,5-tetrahydrobenzo[b][1,4]oxazepin-3-yl)-N^2-phenethyloxalamide], the IC50 in experiment [1] is < 100 nM. Also, in experiment [2], the inhibition at 1 µM was ≥ 75%.

As to `CN1C(=O)[C@@H](NC(=O)C(=O)NCCc2ccccc2)COc2ccc(C#CC3(O)CN(C=O)C3)cc21` [Example 92, (S)—N^1-(7-((1-formyl-3-hydroxyazetidin-3-yl)ethynyl)-5-methyl-4-oxo-2,3,4,5-tetrahydrobenzo[b][1,4]oxazepin-3-yl)-N^2-phenethyloxalamide], in experiment [1], the IC50 was < 100 nM. For the same compound, in experiment [2], the inhibition at 1 µM was in the range of 50 to 74%.

As for `CCOC(=O)CCC#Cc1ccc2c(c1)N(C)C(=O)[C@@H](NC(=O)C(=O)NCCc1ccccc1)CO2` [Example 94, ethyl (S)-5-(5-methyl-4-oxo-3-(2-oxo-2-(phenethylamino)acetamido)-2,3,4,5-tetrahydrobenzo[b][1,4]oxazepin-7-yl) pent-4-ynoate], the IC50 in experiment [1] is < 100 nM. Further, the inhibition at 1 µM in experiment [2] is ≥ 75%.

For `CN1C(=O)[C@@H](NC(=O)C(=O)NCc2ccccc2)COc2ccc(C#CCn3ccnc3)cc21` [Example 104, (S)—N^1-(7-(3-(1H-imidazol-1-yl)prop-1-yn-1-yl)-5-methyl-4-oxo-2,3,4,5-tetrahydrobenzo[b][1,4]oxazepin-3-yl)-N^2-benzyloxalamide], the IC50 in experiment [1] is < 100 nM. Further, the inhibition at 1 µM in experiment [2] was ≥ 75%.

As to `CN1C(=O)[C@@H](NC(=O)C(=O)NCc2ccccc2)COc2ccc(C#CCN3CCOCC3)cc21` [Example 106, (S)—N^1-benzyl-N^2-(5-methyl-7-(3-morpholinoprop-1-yn-1-yl)-4-oxo-2,3,4,5-tetrahydrobenzo[b][1, 4]oxazepin-3-yl)oxalamide], the IC50 in experiment [1] is < 100 nM. Moreover, the inhibition at 1 µM in experiment [2] was ≥ 75%.

`CN1C(=O)[C@@H](NC(=O)C(=O)NCc2ccccc2)COc2ccc(C#CCN3CCNC(=O)C3)cc21` [Example 107, (S)—N^1-benzyl-N^2-(5-methyl-4-oxo-7-(3-(3-oxopiperazin-1-yl)prop-1-yn-1-yl)-2,3,4,5-tetrahydrobenzo[b][1,4]oxazepin-3-yl)oxalamide]: the IC50 in experiment [1] was < 100 nM. Further, the inhibition at 1 µM in experiment [2] was 50 to 74%.

For the compound `CN1C(=O)[C@H](NC(=O)C(=O)NCCc2cccc(F)c2)COc2ccc(C#CCCO)cc21` [Example 109, (R)—N^1-(3-fluorophenethyl)-N^2-(7-(4-hydroxybut-1-yn-1-yl)-5-methyl-4-oxo-2,3,4,5-tetrahydrobenzo[b][1,4]oxazepin-3-yl)oxalamide], the IC50 in experiment [1] is < 100 nM. In addition, in experiment [2], the inhibition at 1 µM is ≥ 75%.

In the case of `CN1C(=O)[C@@H](NC(=O)C(=O)NCCc2cccc(F)c2)COc2ccc(C#CC3(O)COC3)cc21` [Example 110, (S)—N^1-(3-fluorophenethyl)-N^2-(7-((3-hydroxyoxetan-3-yl)ethynyl)-5-methyl-4-oxo-2,3,4,5-tetrahydrobenzo[b][1,4]oxazepin-3-yl)oxalamide], the IC50 in experiment [1] is < 100 nM. Moreover, the inhibition at 1 µM in experiment [2] is ≥ 75%.

Turning to `CN1C(=O)[C@@H](NC(=O)C(=O)NCCc2cccc(F)c2)COc2ccc(C#CCN3CC[C@@H](O)C3)cc21` [Example 114, N^1-(3-fluorophenethyl)-N^2-((S)-7-(3-((R)-3-hydroxypyrrolidin-1-yl)prop-1-yn-1-yl)-5-methyl-4-oxo-2,3,4,5-tetrahydrobenzo[b][1,4]oxazepin-3-yl)oxalamide], in experiment [1], the IC50 was < 100 nM. Further, the inhibition at 1 µM in experiment [2] is ≥ 75%.

For `CN1C(=O)[C@@H](NC(=O)C(=O)NCCc2cccc(F)c2)COc2ccc(C#CCN3CC[C@H](O)C3)cc21` [Example 115, N^1-(3-fluorophenethyl)-N^2-((S)-7-(3-((S)-3-hydroxypyrrolidin-1-yl)prop-1-yn-1-yl)-5-methyl-4-oxo-2,3,4,5-tetrahydrobenzo[b][1,4]oxazepin-3-yl)oxalamide], in experiment [1], the IC50 is < 100 nM. In experiment [2], the inhibition at 1 µM lay in the range of 50 to 74%.

For `CN1C(=O)[C@@H](NC(=O)C(=O)NCCc2cccc(F)c2)COc2ccc(C#Cc3cccnc3)cc21` [Example 117, (S)—N^1-(3-fluorophenethyl)-N^2-(5-methyl-4-oxo-7-(pyridin-3-ylethynyl)-2,3,4,5-tetrahydrobenzo[b][1,4]oxazepin-3-yl)oxalamide], the IC50 in experiment [1] is < 100 nM. Besides, the inhibition at 1 µM in experiment [2] is 50 to 74%.
